Assay results published in patent publication US20090298890A1, “NEW N-METHYL BENZAMIDE DERIVATIVES” (BAYER CROPSCIENCE SA, priority 2006, published 2009).

What was measured:
Alternaria alternata = assay: Cell test on Alternaria alternata; type: cell-based; settings: under similar conditions (10 ppm, OD 620 nm after 5 days at 20° C.)
Procedure: Cell Test on Alternaria Alternata The growth of Alternaria alternata is performed on PDA medium at 20° C. under black light during 14 days. The PDA medium is prepared by mixing 39 grams of PDA (Merck) in 1 liter of demineralized water. The medium is sterilized by autoclave 15 minutes at 121° C. After 14 days of growth, the spores of Alternaria alternata are recovered in sterilized water and the concentration of spores adjusted to 10^6 spores per ml. The compounds is solubilized in DMSO and added to sterile liquid glucose/mycopeptone medium (14.6 g/l of D-glucose, 7.1 g/l of mycological peptone (Oxoid) and 1.4 g/l of yeast extract (Merck)) at a concentration of 10 ppm. The medium is inoculated with the spore suspension at a concentration of 10^5 spores per ml. The efficacy of the compounds is assessed by OD measurement at 620 nm after 5 days at 20° C. in comparison with a control.

Pyrenophora teres = assay: In vivo test on Pyrenophora teres (barley net blotch); settings: barley plants (Express variety), preventive spray 24 hours before contamination, dose 330 ppm, grading 12 days after contamination vs control plants
Procedure: In Vivo Test on Pyrenophora Teres (Barley Net Blotch)
The active ingredients tested are prepared by homogenization in a mixture of acetone/tween/DMSO, then diluted with water to obtain the desired active material concentration.
Barley plants (Express variety), sown on a 50/50 peat soil-pozzolana substrate in starter cups and grown at 12° C., are treated at the 1-leaf stage (10 cm tall) by spraying with the active ingredient prepared as described above. Plants, used as controls, are treated with the mixture of acetone/tween/DMSO/water not containing the active material.
After 24 hours, the plants are contaminated by spraying them with an aqueous suspension of Pyrenophora teres spores (12,000 spores per ml). The spores are collected from a 12-day-old culture. The contaminated barley plants are incubated for 24 hours at about 20° C. and at 100% relative humidity, and then for 12 days at 80% relative humidity.
Grading is carried out 12 days after the contamination, in comparison with the control plants.

For `O=C(NOCc1ncc(C(F)(F)F)cc1Cl)c1c(F)cccc1F` [Compound 502, N-{[3-chloro-5-(trifluoromethyl)pyridin-2-yl]methoxy}-2,6-difluorobenzamide], the activity (Alternaria alternata) was “did not show any activity”.
`O=C(NCOc1ncc(C(F)(F)F)cc1Cl)c1ccccc1C(F)(F)F` [Compound 1, N-({[3-chloro-5-(trifluoromethyl)pyridin-2-yl]oxy}methyl)-2-(trifluoromethyl)benzamide] was tested, and the protection (Pyrenophora teres) was “at least 60%”.
`O=C(NOCc1ncc(C(F)(F)F)cc1Cl)c1c(Cl)cccc1Cl` [Compound 501] was tested, and the activity (Alternaria alternata) was “did not show any activity”.
